# Measured values from PMC10380841, “Synthesis, Characterization and Cytotoxic Evaluation of New Pyrrolo[1,2-b]pyridazines Obtained via Mesoionic Oxazolo-Pyridazinones” (International Journal of Molecular Sciences, 2023).
# Where two headings read alike, the source gives them in different places.
# Tests used:
# Triticum aestivum L. = assay: Triticum test, phytotoxicity (main root length); type: in vivo; settings: Triticum aestivum, 72 h; Triticum root length, 10–1000 µM, measured over three days
# Protocol: Phytobiological testing (Triticum test) was performed by the Constantinescu method which consists in determining the maximum active dilution of a compound. Depending on the duration of action, it can influence root elongation and the […] film. […] Embryonic wheat roots were obtained by germinating homogeneous wheat caryopses in Linhart pots. Then the caryopses with a main root length of 1 cm were placed in the test solutions. For the determination of the action of each compound, five dilutions in the concentration range of 10–1000 µM were obtained and 11 caryopses were placed in them. Petri dishes containing 15 mL of diluted solution were kept under constant conditions of temperature (25 °C), and humidity (60%), in the absence of light. […] The results were expressed in comparison with a 1% DMSO control.
# Statistical analyses were performed using the computing and programming environment R, R, v. 4.2.1 [68], under Rstudio, v. 2022.07.2+576 “Spotted Wakerobin” for Windows (RStudio, PBC, Boston, 2022), both for the Triticum and Artemia tests. It used a parametric mixed-effects model (R package “lme4”) and a robust mixed-effects model (R package “robustlmm”), in which root length measurements (Triticum) from all three days were used as the dependent variable, whereas compound, concentration and time were treated as fixed effects, with time (day of measurement) also treated as a random effect. Assessing statistical significance for mixed-effects statistical models is controversial and complex, but as a pragmatic way of working, we have estimated p-values using the Kenward–Rogers approximation (R package “sjPlot”). A variety of R base functions and R packages were used to diagnose the regression models (“car” [72], “MASS” [73], and “gvlma” [74]). Mixed boxplot–dotplot plots were generated using the “ggplot2” package.
# The “drc” R package was used to estimate IC50 values for the Triticum bioassay by nonlinear modeling. For Triticum, the relationship between root length and concentration was modeled using Weibull functions with 2, 3, or 4 parameters, depending on the data distribution, the models being selected from a range of several models with different functions and parameters, based on the Akaike’s information criterion (AIC).
# [1] = Daphnia magna toxicity assay; type: in vivo; settings: Daphnia magna, in vivo; 48 h
# Protocol: (§1) Young organisms of Daphnia magna were selected according to their size from a parthenogenetic culture maintained in an artificial medium for 24 h before the bioassay. The determination was conducted in tissue culture plates with 12 wells (Greiner Bio-One, Monroe, NC, USA), with 10 organisms in each well, and a final volume of 3 mL per sample [65, 66]. As a negative control, DMSO was used at a concentration of 1%. All compounds were tested at six different concentration levels, ranging from 12.5 to 500 μg/mL. All assessments were performed in duplicate.
# Daphnia magna Straus = assay: Daphnia magna toxicity assay; type: in vivo; settings: 48 h
# Protocol: as §1
# [2] = tested on: LoVo colon adenocarcinoma cells; assay: MTS cytotoxicity assay, LoVo; type: cell-based, human; settings: Homo sapiens
# Protocol: (§2) Therefore, the precursor acids 2a–c and corresponding pyrrolo[1,2-b]pyridazines 5a–c,f were tested for their potential cytotoxic activity. During the assays, increasing concentrations of the compounds, ranging from […], were added for 24 h or 48 h to cancer LoVo, SK-OV-3, MCF-7, and the reference HUVEC cells, previously cultured for 24 h in 96-well flat bottom plates. […] Then, MTS reagent was added, and cells were incubated for 4 h at 37 °C in a 5% CO2 humidified atmosphere. The absorbance values were spectrophotometrically read to a Dynex ELISA reader at λ = […].
# (§3) For the evaluation of the in vitro potential anti-proliferative effects of treatments with the new compounds under study against solid tumor-derived cells, several compound-mediated cytotoxicity assays were performed on three adherent tumor standardized cell lines, and normal human endothelial cells, used as control: the MCF-7 human breast adenocarcinoma and SK-OV-3 human ovary adenocarcinoma cell lines were provided from European Collection of Authenticated Cell Cultures (ECACC), while LoVo, human colorectal adenocarcinoma cell line, and HUVEC human umbilical vein endothelial cells were purchased from American Type Culture Collection (ATCC).
# (§4) Adherent cells were cultivated in DMEM/F12 medium added with 2 mM L-glutamine and 10% fetal bovine serum, 100 units/mL penicillin, 100 µg/mL streptomycin (Sigma Aldrich, St. Louis, MO, USA) and incubated at 37 °C in 5% CO2 humidified atmosphere. The stock solutions for cell treatments were prepared by dissolving the synthesized compounds in a minimum amount of DMSO. Working dilutions were prepared from the stock solutions in culture medium before each treatment assay. After 24 h, when cell cultures achieved around 70% confluence, treatments were applied for various periods of time with different concentrations of synthesized compounds or oncolytic drugs, used as positive controls.
# (§5) Therefore, cell cultures treated with the new compounds or oncolytic drugs for 24 h or 48 h were further subjected to a colorimetric cell viability method, the MTS assay. The absorbance of probes was read, data were calculated, and percentages of cell viability were assessed.
# (§6) The evaluation of the compound-induced cytotoxicity was made using the CellTiter 96 Aqueous One Solution Cell Proliferation Assay (Promega, Madison, WI, USA), a reagent that contains both MTS (3-(4,5-dimethylthiazol-2-yl)-5-(3-carboxymethoxyphenyl)-2-(4-sulfophenyl)-2H-tetrazolium, inner salt) and PES ([…], a cationic dye with high chemical stability that binds to MTS and forms a stable solution).
# (§7) Briefly, 1.5 × 10^4 cancer or normal cells were cultured in 100 µL/well for 24 h. After the culture supernatants were discarded, cells were treated for additional 24 h or 48 h with increasing concentrations of new compounds or oncolytic drugs. Following the specific treatments, in each well a volume of 20 µL of coloring mixture reagent of MTS and PES was added, and then the plates were incubated with mild agitation every 20 min for 4 h at 37 °C. The color developed during incubation was spectrophotometrically quantified at λ = 492 nm using a Dynex ELISA reader (DYNEX Technologies—MRS, Chantilly, VA, USA).
# (§8) Data were expressed as percentages of cell viability of the treated cells, and were calculated and compared to the untreated cells (considered 100% viable), using the formula:Cell viability (%) = (T − B)/(U − B) × 100 where T = absorbance of treated cells, U = absorbance of untreated cells, and B = absorbance of culture medium (blank), for λ = 492 nm.
# (§9) The cell viability data were expressed as the mean values ± standard deviations (SD) of three different experiments (n = 3). […] Moreover, a parallel experiment was performed in the absence of cells, with all the concentrations of the compounds being tested for their potential interference with MTS reagents; then, their absorbance values were extracted during calculations.
# [3] = tested on: MCF-7 breast adenocarcinoma cells; assay: MTS cytotoxicity assay, MCF-7; type: cell-based, human; settings: Homo sapiens, MCF7; for viability at 200 µM: MCF-7, 200 μM; for viability at 200 µM / viability at 400 µM / viability at 40 µM: read-out: cell viability; for viability at 400 µM: MCF-7, 400 μM; for viability at 40 µM: MCF-7, 40 μM
# Protocol: as §2, §3, §4, §5
# as §6, with “solution). The assay is based on the ability of the metabolically active cells to reduce the yellow tetrazolium salt MTS to a compound that is soluble in culture medium, the colored formazan, followed by the spectrophotometric evaluation of its concentration.” for “solution).”
# as §7, §8
# The cell viability data were expressed as the mean values ± standard deviations (SD) of three different experiments (n = 3). […]
# [4] = tested on: SK-OV-3 ovary adenocarcinoma cells; assay: MTS cytotoxicity assay, SK-OV-3; type: cell-based, human; settings: Homo sapiens
# Protocol: as §2, §3, §4, §5, §6, §7, §8, §9
# [5] = tested on: LoVo colon adenocarcinoma cells; assay: MTS cytotoxicity assay, LoVo; type: cell-based; settings: Homo sapiens, read-out: cell viability
# [6] = tested on: SK-OV-3 ovary adenocarcinoma cells; assay: MTS cytotoxicity assay, SK-OV-3; type: cell-based; settings: Homo sapiens, read-out: cell viability; for viability at 400 µM: SK-OV-3, 400 μM; for viability at 40 µM: SK-OV-3, 40 μM
# [7] = tested on: HUVEC human umbilical vein endothelial cells; assay: MTS cytotoxicity assay, HUVEC normal cells; type: cell-based; settings: for cytotoxic effect on HUVEC: 24 h
# Protocol: as §2, §3, §4, §5, §6, §7, §8, §9
# [8] = MTS cytotoxicity assay, HUVEC normal cells; type: cell-based, human; settings: human, HUVEC human umbilical vein endothelial cells (normal cells), read-out: cell viability
# Protocol: as §2, §3, §4, §5, §6, §7, §8, §9
# Artemia nauplii = tested on: Artemia nauplii; design: method as in PMID 16445096; settings: at 24 and 48 h; cited from earlier work
# [9] = MCF-7, 48 h, read-out: IC50 MCF-7 48 h
# [10] = SK-OV-3, 24 h, read-out: IC50 Sk-OV-3 24 h
# [11] = SK-OV-3, 48 h, read-out: IC50 Sk-OV-3 48 h
# [12] = MCF-7, 24 h, read-out: IC50 MCF-7 24 h
smiles,measurement,setting,value
"CCOC(=O)C(CC)n1nc(-c2ccccc2)ccc1=O (stereo not shown) [Compound 1a, Ethyl 2-(6-oxo-3-phenylpyridazin-1-yl)butanoate]",melting point,,56 to 58 °C
"CCOC(=O)C(CC)n1nc(-c2ccc(F)cc2)ccc1=O (stereo not shown) [Compound 1b, Ethyl 2-[6-oxo-3-(4-fluorophenyl)pyridazin-1-yl]butanoate]",melting point,,59 to 61 °C
"CCOC(=O)C(CC)n1nc(-c2ccc(Cl)cc2)ccc1=O (stereo not shown) [Compound 1c, Ethyl 2-[6-oxo-3-(4-chlorophenyl)pyridazin-1-yl]butanoate]",melting point,,49 to 51 °C
"CCC(C(=O)O)n1nc(-c2ccccc2)ccc1=O (stereo not shown) [Compound 2a, 2-(6-Oxo-3-phenylpyridazin-1-yl)butanoic acid]",IC50,Triticum aestivum L.,213 µM
same,LC50 at 48 h,[1],521 µM
same,toxicity on Daphnia magna,Daphnia magna Straus,moderate toxicity
same,IC50,"[2]; 24 h, read-out: IC50 LoVo 24 h",≥ 400 µM
same,IC50,"[2]; 48 h, read-out: IC50 LoVo 48 h",≥ 400 µM
same,viability at 200 µM,[3]; 48 h,97%
same,viability at 400 µM,[3]; 48 h,94%
same,IC50,[3]; [9],≥ 400 µM
same,IC50,[4]; [10],≥ 400 µM
same,IC50,[4]; [11],≥ 400 µM
same,viability at 200 µM,[5]; 48 h,82.9%
same,viability at 400 µM,[5]; 24 h,69.1%
same,viability at 400 µM,[5]; 48 h,60.8%
same,viability at 400 µM,[6]; 24 h,89.3%
same,viability at 400 µM,[6]; 48 h,85.1%
"O=c1[nH]cc(F)c(=O)[nH]1 [Compound 5-FU, 5-fluorouracil, reference compound]",IC50,"[2]; 24 h, read-out: IC50 LoVo 24 h",76.1 ± 3.09 µM
same,IC50,"[2]; 48 h, read-out: IC50 LoVo 48 h",66.2 ± 2.66 µM
same,viability at 200 µM,[3]; 24 h,45.5%
same,viability at 200 µM,[3]; 48 h (drug control),18.2%
same,IC50,[3]; [12],80.6 ± 4.39 µM
same,IC50,[3]; [9],60.4 ± 5.04 µM
same,cell viability,"[7]; 200 μM, 48 h",no significant effect
same,cytotoxic effect on HUVEC,[7],no remarkable cytotoxic effects
same,viability at 200 µM,[5]; 24 h,42.3%
same,viability at 200 µM,[5]; 48 h,28.7%
"CCOC(=O)c1cc(CC)n2nc(-c3ccccc3)ccc12 [Compound 5d, Ethyl 7-ethyl-2-phenylpyrrolo[1,2-b]pyridazine-5-carboxylate]",melting point,,99 to 101 °C
"CCOC(=O)c1cc(CC)n2nc(-c3ccc(Cl)cc3)ccc12 [Compound 5f, Ethyl 2-(4-chlorophenyl)-7-ethylpyrrolo[1,2-b]pyridazine-5-carboxylate]",LC50 at 48 h,[1],428 µM
same,toxicity on Daphnia magna,Daphnia magna Straus,moderate toxicity
same,IC50,"[2]; 24 h, read-out: IC50 LoVo 24 h",≥ 400 µM
same,IC50,"[2]; 48 h, read-out: IC50 LoVo 48 h",353 ± 4.1 µM
same,viability at 200 µM,[3]; 48 h,97%
same,viability at 400 µM,[3]; 48 h,94%
same,IC50,[3]; [9],≥ 400 µM
same,IC50,[4]; [10],≥ 400 µM
same,IC50,[4]; [11],≥ 400 µM
same,"viability at 24 h, 400 µM","[8]; 400 μM, 24 h",90%
same,"viability at 48 h, 400 µM","[8]; 400 μM, 48 h",91.6%
same,viability at 400 µM,[5]; 24 h,78.2%
same,viability at 400 µM,[5]; 48 h,41.8%
same,viability at 400 µM,[6]; 48 h,83%
"COc1cccc2c1C(=O)c1c(O)c3c(c(O)c1C2=O)C[C@@](O)(C(=O)CO)C[C@@H]3O[C@H]1C[C@H](N)[C@H](O)[C@H](C)O1 [DOX, doxorubicin, reference compound]",viability at 40 µM,[3]; 24 h,41.8%
same,viability at 40 µM,[3]; 48 h,36.7%
same,IC50,[3]; [12],14.8 ± 4 µM
same,IC50,[3]; [9],11.6 ± 0.53 µM
same,IC50,[4]; [10],55.4 ± 2.98 µM
same,IC50,[4]; [11],12.1 ± 0.32 µM
same,"viability at 48 h, 40 µM","[8]; 40 μM, 48 h",81.7%
same,cytotoxic effect on HUVEC,[7],no remarkable cytotoxic effects
same,viability at 40 µM,[6]; 24 h,68.6%
same,viability at 40 µM,[6]; 48 h,35.2%
"O=c1n(Cl)c(=O)n(Cl)c(=O)n1Cl [TCIC, trichloroisocyanuric acid]",LC50,Artemia nauplii,< 1 µM
"OC[P+](CO)(CO)CO [THPC, tetrakis(hydroxymethyl) phosphonium chloride]",LC50,Artemia nauplii,< 1 µM
